Assay results reported in patent US7713963B2, “Acylated indanyl amines and their use as pharmaceuticals” (sanofi-aventis Deutschland GmbH, priority 2001, dated 2010).
Like-named read-outs stand apart in the source and are kept apart here.

System: eNOS promoter
Assay: Activation of eNOS transcription (eNOS promoter-luciferase reporter gene assay)
Format: cell-based, human
Conditions: 18 h incubation; for maximal fold induction / TIR (max): maximum transcription induction ratio (luciferase with compound / solvent alone); for maximal fold induction: read-out: TIR (max); for EC50: EC50 of transcription induction ratio, determined graphically, human endothelial cell line, read-out: EC-50
Protocol: Measurement of activation of eNOS transcription Activation of eNOS transcription was measured as described in detail in Li et al. “Activation of protein kinase C alpha and/or epsilon enhances transcription of the human endothelial nitric oxide synthase gene”, Mol. Pharmacol. 1998; 53: 630-637. Briefly, a 3.5 kB long fragment 5′ of the starting codon of the eNOS gene was cloned, sequenced and cloned in firefly luciferase expression plasmids to monitor activation of the eNOS promoter by reporter gene activity. A human endothelial cell line stable transfected and expressing this promoter-reporter construct was used for compound testing. Cells were incubated for 18 h with compounds. All compounds were dissolved in sterile DMSO. A final concentration of 0.5% DMSO in complete medium was allowed. Induction of reporter gene expression in these cells was measured using a standard luciferase assay system (Promega, Cat. No E150) according to the manufacturer's instructions. Luciferase induction in cells incubated with compounds were compared to those incubated with solvent alone. The ratio of both activities (transcription induction ratio, TIR) was plotted as a function of compound concentration. […] EC50 values of transcription induction ratios as a function of compound concentration were determined graphically.

[1] = Homo sapiens, Endothelial cell, 18 h

Structure (SMILES) | EC50 [1] [µM] | maximal fold induction (Homo sapiens, 18 h) | EC50 [µM] | TIR (max)
O=C(NC1Cc2ccccc2C1)c1ccc(Cl)nc1 [Compound 387, 6-CHLORO-N-INDAN-2-YL-NICOTINAMIDE] | 32 | 2.6 |  | 
CCOc1ccc(C(=O)NC2Cc3ccccc3C2)cc1 [Compound 26, 4-ETHOXY-N-INDAN-2-YL-BENZAMIDE] | 0.9 | 3.8 |  | 
CC(C)C(=O)Nc1cccc(C(=O)NC2Cc3ccccc3C2)c1 [Compound 372, N-INDAN-2-YL-3-ISOBUTYRYLAMINO-BENZAMIDE] | 1.6 | 2.7 |  | 
Cc1c(C(=O)NC2Cc3ccccc3C2)cccc1C(F)(F)F [Compound 361, N-INDAN-2-YL-2-METHYL-3-TRIFLUOROMETHYL-BENZAMIDE] | 21 | 2.5 |  | 
Cc1cccc2c1CC(NC(=O)c1ccc(F)cc1)C2 (single isomer, unassigned; (+)) [Compound 1b, (+)-4-Fluoro-N-(4-methyl-indan-2-yl)-benzamide] |  |  | 0.2 | 3.00
O=C(NC1Cc2ccccc2C1)c1ccc(F)cc1Br [Compound 61, 2-BROMO-4-FLUORO-N-INDAN-2-YL-BENZAMIDE] | 0.7 | 2.6 |  | 
O=C(NC1Cc2ccccc2C1)c1ccc2ccccc2c1 [Compound 295, NAPHTHALENE-2-CARBOXYLIC ACID INDAN-2-YLAMIDE] | 0.846 | 2.4 |  | 
CS(=O)(=O)Nc1cccc(C(=O)NC2Cc3ccccc3C2)c1 [Compound 388, N-INDAN-2-YL-3-METHANE SULFONYLAMINO-BENZAMIDE] |  |  | 1.1 | 2.4
O=C(NC1Cc2ccccc2C1)c1cccc(NC(=O)C2CC2)c1 [Compound 376, 3-(CYCLOPROPANECARBONYL-AMINO)-N-INDAN-2-YL-BENZAMIDE] | 5.3 | 2.4 |  | 
O=C(NC1Cc2ccccc2C1)c1cc(Cl)ccc1F [Compound 330, 5-CHLORO-2-FLUORO-N-INDAN-2-YL-BENZAMIDE] | 12 | 2.2 |  | 
Cc1ccc(F)c(C(=O)NC2Cc3ccccc3C2)c1 [Compound 266, 2-FLUORO-N-INDAN-2-YL-5-METHYL-BENZAMIDE] | 22 | 2.5 |  | 
O=C(NC1Cc2cc(Br)c(Br)cc2C1)c1ccc(F)cc1 [Compound 397, N-(5,6-DIBROMO-INDAN-2-YL)-4-FLUORO-BENZAMIDE] | 30 | 1.7 |  | 
O=C(NC1Cc2ccccc2C1)c1ccc(Oc2ccccc2)cc1 [Compound 32, 4-PHENOXY-N-INDAN-2-YL-BENZAMIDE] | 1.7 | 4 |  | 
O=C(NC1Cc2ccccc2C1)c1cccc(Oc2ccccc2)c1 [Compound 286, N-INDAN-2-YL-3-PHENOXY-BENZAMIDE] | 26 | 2.6 |  | 
CCOc1ccc(C(=O)NC2Cc3ccccc3C2)c(OC(C)=O)c1 [Compound 6, ACETIC ACID 5-ETHOXY-2-(INDAN-2-YL-CARBAMOYL)-PHENYL ESTER] | 1.2 | 2.55 |  | 
Cc1ccccc1C(=O)NC1Cc2ccccc2C1 [Compound 281, N-INDAN-2-YL-2-METHYL-BENZAMIDE] | 0.684 | 3 |  | 
Cc1ccc(C(=O)Nc2cccc(C(=O)NC3Cc4ccccc4C3)c2)cc1 [Compound 381, 3-(4-METHYL-BENZOYLAMINO)-BENZOIC ACID INDAN-2-YLAMIDE] | 12 | 2.5 |  | 
CCOc1cccc(C(=O)NC2Cc3ccccc3C2)c1 [Compound 306, 3-ETHOXY-N-INDAN-2-YL-BENZAMIDE] | 0.263 | 2.7 |  | 
Nc1nccnc1C(=O)NC1Cc2ccccc2C1 [Compound 185, 3-AMINO-PYRAZINE-2-CARBOXYLIC ACID INDAN-2-YLAMIDE] | 27 | 2.4 |  | 
Cc1cc(C)c(C(=O)NC2Cc3ccccc3C2)c(N)n1 [Compound 187, 2-AMINO-N-INDAN-2-YL-4,6-DIMETRYL-NICOTINAMIDE] |  |  | 4.4 | 2.5
Nc1c(C(=O)NC2Cc3ccccc3C2)cnn1-c1ccccc1 [Compound 427, 5-AMINO-1-PHENYL-1H-PYRAZOLE-4-CARBOXYLIC ACID INDAN-2-YLAMIDE] | 3.7 | 2.5 |  | 
O=C(NC1Cc2ccccc2C1)c1ccc(Br)cc1 [Compound 289, 4-BROMO-N-INDAN-2-YL-BENZAMIDE] | 0.142 | 2.6 |  | 
COC(=O)c1cccc(C(=O)NC2Cc3ccccc3C2)c1 [Compound 243, N-INDAN-2-YL-ISOPHTHALAMIC ACID METHYL ESTER] | 0.11 | 2.8 |  | 
O=C(N[C@@H]1Cc2ccccc2[C@H]1O)c1ccc(F)cc1 (relative stereo) [Compound 8, 4-FLUORO-N-(TRANS-1-HYDROXY-INDAN-2-YL)-BENZAMIDE] | 8 | 2.2 |  | 
CS(=O)(=O)c1csc(C(=O)NC2Cc3ccccc3C2)c1Cl [Compound 321, 3-CHLORO-4-METHANESULFONYL-THIOPHENE-2-CARBOXYLIC ACID INDAN-2-YLAMIDE] | 9.6 | 2.5 |  | 

Now from value to compound, other results behind:

EC50 [1] [µM] | Structure (SMILES) | maximal fold induction (Homo sapiens, 18 h) | EC50 [µM] | TIR (max)
13 | COc1c(Br)cccc1C(=O)NC1Cc2ccccc2C1 [Compound 253, 3-BROMO-N-INDAN-2-YL-2-METHOXY-BENZAMIDE] | 2.2 |  | 
12 | O=C(NC1Cc2ccccc2C1)c1ccc(F)c(F)c1F [Compound 320, 2,3,4-TRIFLUORO-N-INDAN-2-YL-BENZAMIDE] | 3 |  | 
0.7 | Cc1cc(C(=O)NC2Cc3ccccc3C2)c(C)[nH]1 [Compound 216, 2,5-DIMETHYL-1H-PYRROLE-3-CARBOXYLIC ACID INDAN-2-YLAMIDE] | 2.8 |  | 
13 | Cc1nc(C)c(C(=O)NC2Cc3ccccc3C2)s1 [Compound 233, 2,4-DIMETHYL-THIAZOLE-5-CARBOXYLIC ACID INDAN-2-YLAMIDE] | 2.5 |  | 
13 | O=C(NC1Cc2ccccc2C1)c1cc(F)c(Cl)cc1F [Compound 263, 4-CHLORO-2,5-DIFLUORO-N-INDAN-2-YL-BENZAMIDE] | 2.5 |  | 
58 | O=C(NC1Cc2ccccc2C1)c1cccc(Cl)c1F [Compound 250, 3-CHLORO-2-FLUORO-N-INDAN-2-YL-BENZAMIDE] | 2.5 |  | 
14 | O=C(NC1Cc2ccccc2C1)c1ccc(-c2cccnc2)cc1 [Compound 435, N-INDAN-2-YL-4-PYRIDIN-3-YL-BENZAMIDE] | 2.5 |  | 
2.5 | CC(C)Oc1ccc(C(=O)NC2Cc3ccccc3C2)cc1 [Compound 28, 4-ISOPROPYLOXY-N-INDAN-2-YL-BENZAMIDE] | 4.4 |  | 
19 | O=C(NC1Cc2ccccc2C1)c1cccc(-c2ccccn2)c1 [Compound 433, N-INDAN-2-YL-3-PYRIDIN-2-YL-BENZAMIDE] | 2.6 |  | 
12 | CCOc1cc(C(=O)NC2Cc3ccccc3C2)ccc1OC [Compound 25, 3-ETHOXY-4-METHOXY-N-INDAN-2-YL-BENZAMIDE] | 2.7 |  | 
0.7 | Nc1ccccc1C(=O)NC1Cc2ccccc2C1 [Compound 73, 2-AMINO-N-INDAN-2-YL-BENZAMIDE] | 4 |  | 
